Starred links: 1 amine or outer side, 2 acyl side, 3 side chain; linkers in the order of their positions; H or OH if unused. Positions of bridges follow the written chain, without caps; N, C: chain ends. Non-standard residues stand in square brackets, D forms with d. Residues, ends and D or L forms follow the SMILES beside them. Chains are numbered I, II in the order given. Actinocin(9to1) = Cc1c2oc3c(C)ccc(C(=O)[*:1])c3nc-2c(C(=O)[*:2])c(N)c1=O; NMeV = CN[C@H](C(=O)O)C(C)C; Sar = CNCC(=O)O
How the values were obtained:
Type in all cases: cell-based, human
HeLa cells [1] = assay: HeLa cell proliferation test using Trametinib and MK-2206; details: drug from day 1 for 5 days
Procedure: (§1) This aqueous solution was sterilized at 121° C. for 20 min in an autoclave.
(§2) Each plate was cultured by being stood still in a CO2 incubator (37° C., 5% CO2). […] The anticancer drugs used were Trametinib (manufactured by Santa Cruz, MEK inhibitor) and MK-2206 (manufactured by Santa Cruz, Akt inhibitor). To the culture medium on day 6 was added an ATP reagent (150 μL) (CellTiter-Glo (registered trade mark) Luminescent Cell Viability Assay, manufactured by Promega) to give a suspension, which was stood for about 10 min at room temperature, and the luminescence intensity (RLU value) was measured by FlexStation3 (manufactured by Molecular Devices), and the number of viable cells was measured by subtracting the luminescence value of the medium alone.

A549 cells = assay: A549 cell proliferation test using Trametinib and MK-2206; details: drug from day 1 for 5 days
Procedure: This aqueous solution was sterilized at 121° C. for 20 min is in an autoclave.
as §2

HeLa cells [2] = assay: Comparison with single layer culture method in cell proliferation test using agent for inducing apoptosis; details: day 4
Procedure: as §1
Each plate was cultured by being stood still in a CO2 incubator (37° C., 5% CO2). […] To the culture medium on day 4 was added an ATP reagent (150 μL) (CellTiter-Glo (registered trade mark) Luminescent Cell Viability Assay, manufactured by Promega) to give a suspension, which was stood for about 10 min at room temperature, and the luminescence intensity (RLU value) was measured by FlexStation3 (manufactured by Molecular Devices), and the number of viable cells was measured by subtracting the luminescence value of the medium alone. For WST-8 measurement, a WST-8 solution (manufactured by is DOJINDO Laboratories, 15 μL) was added, the mixture was incubated at 37° C. for 100 min, the absorbance at 450 nm was measured by an absorbance spectrometer (manufactured by Molecular Devices, SPECTRA MAX 190), and the number of viable cells was measured by subtracting the absorbance of the medium alone.

HeLa cells [3] = assay: Cell proliferation test using various anticancer drugs; details: HeLa cells 5 days later, DAG 0.030% medium
Procedure: This aqueous solution was sterilized at 121° C. for 20 min in an autoclave. […] The anticancer drug used was Adriamycin (manufactured by WAKO), Paclitaxel (manufactured by WAKO) or Mitomycin C (manufactured by WAKO).
Successively, this plate was cultured by being stood still in a CO2 incubator (37° C., 5% CO2) for 7 days. After culturing for 3, 5, 7 days, to the culture medium was added a WST-8 solution (manufactured by DOJINDO Laboratories, 20 μL), and the mixture was incubated at 37° C. for 100 min. The absorbance at 450 nm was measured by an absorbance spectrometer (manufactured by Molecular Devices, SPECTRA MAX 190), and the number of viable cells was measured by subtracting the absorbance of the medium alone. The culture medium containing the cells after 5 days of culture was stirred with a pipette and the obtained stirred solution (20 μL) was mixed with Trypan Blue stain 0.4% (manufactured by Invitrogen, 20 μL) and the cell density was measured under a microscope.

[4] = 0.001 μM, deacylated gellan gum addition group (0.015%)
[5] = 0.001 μM, single layer culture group
[6] = 0.01 μM, deacylated gellan gum addition group (0.015%)
[7] = 0.01 μM, single layer culture group
[8] = 0.1 μM, deacylated gellan gum addition group (0.015%)
[9] = 0.1 μM, single layer culture group
[10] = 1 μM, deacylated gellan gum addition group (0.015%)
[11] = 1 μM, single layer culture group
[12] = 10 μM, deacylated gellan gum addition group (0.015%)
[13] = 10 μM, single layer culture group
[14] = 100 μM, deacylated gellan gum addition group (0.015%)
[15] = 100 μM, single layer culture group
[16] = 0.003 μM, deacylated gellan gum addition group (0.015%)
[17] = 0.003 μM, single layer culture group
[18] = 0.03 μM, deacylated gellan gum addition group (0.015%)
[19] = 0.03 μM, single layer culture group
[20] = 0.3 μM, deacylated gellan gum addition group (0.015%)
[21] = 0.3 μM, single layer culture group
[22] = 3 μM, deacylated gellan gum addition group (0.015%)
[23] = 3 μM, single layer culture group
[24] = 30 μM, deacylated gellan gum addition group (0.015%)
[25] = 30 μM, single layer culture group

CC(=O)Nc1cccc(-n2c(=O)n(C3CC3)c(=O)c3c(Nc4ccc(I)cc4F)n(C)c(=O)c(C)c32)c1 [Trametinib]
% Control of RLU value (ATP) (HeLa cells [1]; [4]): 73 % Control
% Control of RLU value (ATP) (HeLa cells [1]; [5]): 102 % Control
% Control of RLU value (ATP) (HeLa cells [1]; [6]): 12 % Control
% Control of RLU value (ATP) (HeLa cells [1]; [7]): 93 % Control
% Control of RLU value (ATP) (HeLa cells [1]; [8]): 1 % Control
% Control of RLU value (ATP) (HeLa cells [1]; [9]): 20 % Control
% Control of RLU value (ATP) (HeLa cells [1]; [10]): 1 % Control
% Control of RLU value (ATP) (HeLa cells [1]; [11]): 3 % Control
% Control of RLU value (ATP) (A549 cells; [4]): 72 % Control
% Control of RLU value (ATP) (A549 cells; [5]): 71 % Control
% Control of RLU value (ATP) (A549 cells; [6]): 35 % Control
% Control of RLU value (ATP) (A549 cells; [7]): 37 % Control
% Control of RLU value (ATP) (A549 cells; [8]): 2 % Control
% Control of RLU value (ATP) (A549 cells; [9]): 5 % Control
% Control of RLU value (ATP) (A549 cells; [10]): 0 % Control
% Control of RLU value (ATP) (A549 cells; [11]): 1 % Control

Cc1c2oc3c(C)ccc(C(=O)N[C@@H]4C(=O)N[C@H](C(C)C)C(=O)N5CCC[C@H]5C(=O)N(C)CC(=O)N(C)[C@@H](C(C)C)C(=O)O[C@@H]4C)c3nc-2c(C(=O)N[C@@H]2C(=O)N[C@H](C(C)C)C(=O)N3CCC[C@H]3C(=O)N(C)CC(=O)N(C)[C@@H](C(C)C)C(=O)O[C@@H]2C)c(N)c1=O [Actinomycin D] (I: T[dV]P[Sar][NMeV] / II: T[dV]P[Sar][NMeV]; ester I:1-I:C, II:1-II:C; linker I:N-II:N via Actinocin(9to1))
% Control of RLU value (ATP) (HeLa cells [2]; [10]): 4 % Control
% Control of absorbance at 450 nm (WST-8) (HeLa cells [2]; [10]): 3 % Control
% Control of RLU value (ATP) (HeLa cells [2]; [11]): 2 % Control
% Control of absorbance at 450 nm (WST-8) (HeLa cells [2]; [11]): 2 % Control
% Control of RLU value (ATP) (HeLa cells [2]; [12]): 6 % Control
% Control of absorbance at 450 nm (WST-8) (HeLa cells [2]; [12]): 12 % Control
% Control of RLU value (ATP) (HeLa cells [2]; [13]): 2 % Control
% Control of absorbance at 450 nm (WST-8) (HeLa cells [2]; [13]): 4 % Control

C[C@@H]1C[C@@H]([C@H](O)CC2CC(=O)NC(=O)C2)C(=O)[C@@H](C)C1 [Cycloheximide]
% Control of RLU value (ATP) (HeLa cells [2]; [12]): 9 % Control
% Control of absorbance at 450 nm (WST-8) (HeLa cells [2]; [12]): 4 % Control
% Control of RLU value (ATP) (HeLa cells [2]; [13]): 29 % Control
% Control of absorbance at 450 nm (WST-8) (HeLa cells [2]; [13]): 21 % Control
% Control of RLU value (ATP) (HeLa cells [2]; [14]): 4 % Control
% Control of absorbance at 450 nm (WST-8) (HeLa cells [2]; [14]): 1 % Control
% Control of RLU value (ATP) (HeLa cells [2]; [15]): 9 % Control
% Control of absorbance at 450 nm (WST-8) (HeLa cells [2]; [15]): 7 % Control

COc1cccc2c1C(=O)c1c(O)c3c(c(O)c1C2=O)C[C@@](O)(C(=O)CO)C[C@@H]3O[C@H]1C[C@H](N)[C@H](O)[C@H](C)O1 [Adriamycin]
cell density (HeLa cells [3]; 1 μM): 0.6 10^4 cells/mL

CC(=O)O[C@H]1C(=O)[C@@]2(C)[C@H]([C@H](OC(=O)c3ccccc3)[C@]3(O)C[C@H](OC(=O)[C@H](O)[C@@H](NC(=O)c4ccccc4)c4ccccc4)C(C)=C1C3(C)C)[C@]1(OC(C)=O)CO[C@@H]1C[C@@H]2O [Paclitaxel]
cell density (HeLa cells [3]; 0.1 μM): 0.9 10^4 cells/mL
cell density (HeLa cells [3]; 1 μM): 0.2 10^4 cells/mL
% Control of RLU value (ATP) (HeLa cells [1]; [5]): 89 % Control
% Control of RLU value (ATP) (HeLa cells [1]; [16]): 46 % Control
% Control of RLU value (ATP) (HeLa cells [1]; [17]): 15 % Control
% Control of RLU value (ATP) (HeLa cells [1]; [6]): 5 % Control
% Control of RLU value (ATP) (HeLa cells [1]; [7]): 2 % Control
% Control of RLU value (ATP) (A549 cells; [4]): 93 % Control
% Control of RLU value (ATP) (A549 cells; [5]): 81 % Control
% Control of RLU value (ATP) (A549 cells; [16]): 52 % Control
% Control of RLU value (ATP) (A549 cells; [17]): 31 % Control
% Control of RLU value (ATP) (A549 cells; [6]): 32 % Control
% Control of RLU value (ATP) (A549 cells; [7]): 16 % Control

C[C@@H]1C[C@H]2[C@@H]3CCC4=CC(=O)C=C[C@]4(C)[C@@]3(F)[C@@H](O)C[C@]2(C)[C@@]1(O)C(=O)CO [Dexamethasone]
% Control of RLU value (ATP) (HeLa cells [2]; [10]): 232 % Control
% Control of absorbance at 450 nm (WST-8) (HeLa cells [2]; [10]): 184 % Control
% Control of RLU value (ATP) (HeLa cells [2]; [12]): 241 % Control
% Control of absorbance at 450 nm (WST-8) (HeLa cells [2]; [12]): 173 % Control
% Control of RLU value (ATP) (HeLa cells [2]; [13]): 116 % Control

NC1(c2ccc(-c3nc4ccn5c(=O)[nH]nc5c4cc3-c3ccccc3)cc2)CCC1 [MK-2206]
% Control of RLU value (ATP) (HeLa cells [1]; [18]): 57 % Control
% Control of RLU value (ATP) (HeLa cells [1]; [19]): 93 % Control
% Control of RLU value (ATP) (HeLa cells [1]; [20]): 21 % Control
% Control of RLU value (ATP) (HeLa cells [1]; [21]): 84 % Control
% Control of RLU value (ATP) (HeLa cells [1]; [22]): 21 % Control
% Control of RLU value (ATP) (HeLa cells [1]; [23]): 69 % Control
% Control of RLU value (ATP) (HeLa cells [1]; [24]): 0 % Control
% Control of RLU value (ATP) (HeLa cells [1]; [25]): 0 % Control
% Control of RLU value (ATP) (A549 cells; [18]): 84 % Control
% Control of RLU value (ATP) (A549 cells; [19]): 93 % Control
% Control of RLU value (ATP) (A549 cells; [20]): 45 % Control
% Control of RLU value (ATP) (A549 cells; [21]): 79 % Control
% Control of RLU value (ATP) (A549 cells; [22]): 21 % Control
% Control of RLU value (ATP) (A549 cells; [23]): 53 % Control
% Control of RLU value (ATP) (A549 cells; [24]): 0 % Control
% Control of RLU value (ATP) (A549 cells; [25]): 0 % Control

Source: patent US11371013B2, “Culture medium composition and method of culturing cell or tissue using thereof” (Nissan Chemical Industries, Ltd., priority 2012, dated 2022)
